Legend:
[1] = biological target: T1, Gonadotropin-releasing hormone receptor (Homo sapiens, UniProt P30968); test: Inhibition of GnRH-stimulated phosphatidyl inositol hydrolysis in CHO cells expressing GnRH receptor; format: functional, cell-based
T1 sequence (P30968 whole entry): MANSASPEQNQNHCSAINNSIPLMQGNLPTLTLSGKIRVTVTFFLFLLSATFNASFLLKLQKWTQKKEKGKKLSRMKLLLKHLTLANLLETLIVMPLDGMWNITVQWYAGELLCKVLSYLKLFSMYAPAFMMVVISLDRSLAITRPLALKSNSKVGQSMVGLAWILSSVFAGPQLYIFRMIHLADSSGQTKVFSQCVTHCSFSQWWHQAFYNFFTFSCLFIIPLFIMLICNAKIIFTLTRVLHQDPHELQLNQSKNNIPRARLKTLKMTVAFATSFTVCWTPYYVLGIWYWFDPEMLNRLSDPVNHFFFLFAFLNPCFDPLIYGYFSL

[2] = biological target: T1, Gonadotropin-releasing hormone receptor; test: Binding affinity towards human gonadotropin releasing hormone receptor expressed in CHO cells was determined by using [125I]-buserelin as radioligand; format: cell-based

Structure (SMILES)	IC50 [1]	IC50 [2]
Cc1cc(-c2c(OCC[C@@H]3CCN3)c3cc(C(=O)Nc4ccncn4)c(Cl)cc3[nH]c2=O)cc(C)c1C	0.9 nM	
Cc1cc(-c2c(OCCC3CCCO3)c3cc(C(=O)Nc4ccncn4)c(Cl)cc3[nH]c2=O)cc(C)c1C (stereo not given)	3.3 nM	0.6 nM
Cc1cc(-c2c(O)nc3cc(Cl)c(C(=O)Nc4cnsn4)cc3c2OCCC2CCCC2)cc(C)c1C	1150 nM	243 nM
Cc1cc(-c2c(O)nc3cc(Cl)c(C(=O)Nc4cnsn4)cc3c2OCC[C@H]2CCC(=O)N2C)cc(C)c1C	11 nM	1.4 nM
Cc1cc(-c2c(O)nc3cc(Cl)c(C(=O)Nc4cnsn4)cc3c2OCCC2OCCO2)cc(C)c1C	67 nM	0.6 nM
Cc1cc(-c2c(OCCC3CC4CCN3CC4)c3cc(C(=O)Nc4cnsn4)c(Cl)cc3[nH]c2=O)cc(C)c1C (stereo not given)	5.8 nM	0.6 nM
Cc1cc(-c2c(O)nc3cc(Cl)c(C(=O)Nc4ccncn4)cc3c2OCC[C@@H]2CCC[C@H](C(F)(F)F)N2)cc(C)c1C	18 nM	2 nM
Cc1cc(-c2c(OCC[C@@H]3CCN3)c3cc(C(=O)Nc4cnsn4)c(Cl)cc3[nH]c2=O)cc(C)c1C	0.8 nM	0.32 nM
Cc1cc(-c2c(O)nc3cc(Cl)c(C(=O)Nc4ccncn4)cc3c2OCC[C@@H]2CCCN2)cc(C)c1C	2.2 nM	0.8 nM
Cc1cc(-c2c(O)nc3cc(Cl)c(C(=O)Nc4cnsn4)cc3c2OCC[C@H]2CCO2)cc(C)c1C	49 nM	0.9 nM
Cc1cc(-c2c(O)nc3cc(Cl)c(C(=O)Nc4cnsn4)cc3c2OCC[C@H]2CCC(=O)N2)cc(C)c1C	0.7 nM	0.3 nM
Cc1cc(-c2c(O)nc3cc(Cl)c(C(=O)Nc4ccncn4)cc3c2OCC[C@@H]2CCC[C@H](C(F)(F)F)N2C)cc(C)c1C	18 nM	2 nM
Cc1cc(-c2c(OCCC3COCCN3)c3cc(C(=O)Nc4cnsn4)c(Cl)cc3[nH]c2=O)cc(C)c1C (stereo not given)	32 nM	0.7 nM
Cc1cc(-c2c(OCC[C@@H]3CCCCN3)c3cc(C(=O)Nc4cnsn4)c(Cl)cc3[nH]c2=O)cc(C)c1C	1.6 nM	0.55 nM
Cc1cc(-c2c(OCC[C@H]3CC(=O)N3)c3cc(C(=O)Nc4cnsn4)c(Cl)cc3[nH]c2=O)cc(C)c1C	1.3 nM	0.1 nM
Cc1cc(-c2c(OCC[C@@H]3CCCCN3)c3cc(C(=O)Nc4ccncn4)c(Cl)cc3[nH]c2=O)cc(C)c1C	2.2 nM	

Reference: ChEMBL document CHEMBL1138029, “Identification of neutral 4-O-alkyl quinolone nonpeptide GnRH receptor antagonists” (Bioorg Med Chem Lett, 2004)
